Laboratory results published in publication PMC10714400, “Antimicrobial Peptide–Peptoid Hybrids with and without Membrane Disruption” (ACS Infectious Diseases, 2023).
In brackets after ≈: the same amount, converted by molar mass. Where a SMILES comes first, the peptide text is derived from it. [ ]: non-standard residue; d: D form. Nleu = CC(C)CNCC(=O)O

What was measured:
A. baumannii ATCC19606 = conditions: for MIC A. baumannii ATCC19606, full MH at pH 7.4 / MIC A. baumannii ATCC19606, full MH at pH 8.5: ATCC19606, 4 h
Method: (§1) Antimicrobial activity was assayed for all the peptide–peptoids against P. aeruginosa PAO1, K. pneumoniae NCTC418, E. coli W3110, A. baumannii ATCC 19606, methicillin-resistant S. aureus COL (MRSA), and for selected peptides on P. aeruginosa PA14 and the polymyxin-B-resistant derivatives PA14 4.13, PA14 4.18, PA14 2P4, as well as the clinical isolates ZEM-1A and ZEM9A, K. pneumoniae OXA-48, S. aureus Newman, Enterobacter cloacae, Stenotrophomonas maltophilia, Burkholderia cenocepacia, and Staphylococus epidermidis. To determine the Minimal Inhibitory Concentration (MIC), the Broth Microdilution method was used.[72] A colony of bacteria was picked and grown in LB medium overnight at 37 °C.
(§2) To each well was finally added 4 μL of the diluted bacterial suspension (see above), corresponding to approximately 5 × 10^5 CFU. For each test, two columns of the plate were kept for sterility control (medium only), growth control (medium with bacterial inoculum, no compound). The positive control, Polymyxin B (starting with a concentration of 16 μg/mL) in MH medium with bacterial inocula, was introduced in the two lines of the plate. The plates were incubated at 37 °C for ca. 18 h under static conditions. Next, 15 μL of 3-(4,5-dimethylthiazol-2-yl)-2,5-diphenyltetrazolium bromide (MTT)[73] (1 mg/mL in sterilized MilliQ deionized water) were added to each well, and the plates were incubated for 20–30 min at room temperature. The minimal inhibitory concentration (MIC) was defined as the lowest concentration of the compound that inhibits the visible growth of the tested bacteria (yellow) with the unaided eye.

E. coli W3110 = system: E. coli W3110
Method: as §1, §2

K. pneumoniae NCTC418 = system: K. pneumoniae NCTC418
Method: as §1, §2

P. aeruginosa PAO1 = conditions: for MIC P. aeruginosa PAO1, full MH at pH 7.4 / MIC P. aeruginosa PAO1, full MH at pH 8.5: PAO1, 4 h
Method: as §1, §2

PA14 2P4 (pmrB) = conditions: CSV; […] MH at pH 8.5
Method: as §1, §2

PA14 4.13 (phoQ) = conditions: […] MH at pH 8.5; for MIC P. aeruginosa PA14 4.13, […] MH at pH 8.5: CSV; for MIC P. aeruginosa PA14 4.13: Table S3
Method: as §1, §2

PA14 4.18 (pmrB) = conditions: CSV; […] MH at pH 8.5
Method: as §1, §2

S. aureus COL (MRSA) = conditions: for MIC S. aureus COL (MRSA), full MH at pH 7.4 / MIC S. aureus COL (MRSA), full MH at pH 8.5: 4 h
Method: as §1, §2

[1] = system: human red blood cells (hRBC); assay: Minimum hemolytic concentration (MHC); format: cell-based
Source text: We also measured minimal hemolysis concentrations (MHC) on human red blood cells by serial 2-fold dilution as an indication of toxicity against eukaryotic cells (Table 1).

[2] = Circular dichroism, α-helical content; format: physicochemical; conditions: 0.1 mg/mL; for CD %α with 5 mM DPC: 10 mM phosphate buffer pH 7.4, 5 mM DPC; for CD %α with 20% TFE: 10 mM phosphate buffer pH 7.4, 20% TFE
P. aeruginosa PA14 = conditions: Table S3; […] MH at pH 8.5, 16-20 hours at 37 °C
Method: as §1
as §2, with “The plates were incubated at 37 °C for ca. 18 h under static conditions.” left out

S. aureus Newman = conditions: Table S3; […] MH at pH 8.5
Method: as §1
as §2, with “The plates were incubated at 37 °C for ca. 18 h under static conditions.” left out

## CC(C)CN(CC(N)=O)C(=O)CN(CC(C)C)C(=O)CN(CC(C)C)C(=O)[C@H](CCCCN)NC(=O)CN(CC(C)C)C(=O)CN(CC(C)C)C(=O)[C@H](CCCCN)NC(=O)CN(CC(C)C)C(=O)CN(CC(C)C)C(=O)[C@H](CCCCN)NC(=O)[C@@H](N)CCCCN [EB8, KKllKllKlll] (H-KK[Nleu][Nleu]K[Nleu][Nleu]K[Nleu][Nleu][Nleu]-NH2)
A. baumannii ATCC19606; pH 7.4
  MIC A. baumannii ATCC19606, full MH at pH 7.4: >32 ug/mL
A. baumannii ATCC19606; pH 8.5
  MIC A. baumannii ATCC19606, full MH at pH 8.5: 16 ug/mL
E. coli W3110; CSV
  MIC E. coli W3110, […] MH at pH 7.4: 8 ug/mL
  MIC E. coli W3110, […] MH at pH 8.5: 3 ug/mL
  MIC E. coli W3110, full MH at pH 7.4: >32 ug/mL
E. coli W3110; CSV, full MH at pH 8.5
  MIC E. coli W3110, full MH at pH 8.5: 8 ug/mL
E. coli W3110; Table S2, […] MH, pH 8.5
  MIC E. coli W3110 […] 8.5: 2 to 4 µg/mL
E. coli W3110; diluted MH ([…] MH, pH 8.5) per Table 1 footnote b, 16–20 h at 37 °C
  MIC E. coli W3110 […]: 8 µg/mL (≈ 6.05 µM)
E. coli W3110; full MH, pH 7.4, 16–20 h at 37 °C
  MIC E. coli W3110 Full: >32 µg/mL
K. pneumoniae NCTC418; NCTC418, 4 h, pH 7.4
  MIC K. pneumoniae NCTC418, full MH at pH 7.4: >32 ug/mL
K. pneumoniae NCTC418; NCTC418, 4 h, pH 8.5
  MIC K. pneumoniae NCTC418, full MH at pH 8.5: 16 ug/mL
P. aeruginosa PAO1; pH 7.4
  MIC P. aeruginosa PAO1, full MH at pH 7.4: >32 ug/mL
P. aeruginosa PAO1; pH 8.5
  MIC P. aeruginosa PAO1, full MH at pH 8.5: 16 ug/mL
PA14 2P4 (pmrB)
  MIC P. aeruginosa PA14 2P4, […] MH at pH 8.5: 32 ug/mL
PA14 4.13 (phoQ)
  MIC P. aeruginosa PA14 4.13, […] MH at pH 8.5: 24 ug/mL
  MIC P. aeruginosa PA14 4.13: 16 to 32 µg/mL
PA14 4.18 (pmrB)
  MIC P. aeruginosa PA14 4.18, […] MH at pH 8.5: 32 ug/mL
S. aureus COL (MRSA); pH 7.4
  MIC S. aureus COL (MRSA), full MH at pH 7.4: >32 ug/mL
S. aureus COL (MRSA); pH 8.5
  MIC S. aureus COL (MRSA), full MH at pH 8.5: 16 ug/mL
[1]
  Hemolysis: none of them showed any measurable hemolysis
  MHC: >2000 µg/mL

## CC(C)C[C@H](NC(=O)[C@H](CC(C)C)NC(=O)[C@H](CCCCN)NC(=O)[C@@H](N)CCCCN)C(=O)N[C@@H](CCCCN)C(=O)N[C@@H](CC(C)C)C(=O)N[C@@H](CC(C)C)C(=O)N[C@@H](CCCCN)C(=O)N(CC(=O)N(CC(=O)N(CC(N)=O)CC(C)C)CC(C)C)CC(C)C [EB3] (H-KKLLKLLK[Nleu][Nleu][Nleu]-NH2)
A. baumannii ATCC19606; pH 7.4
  MIC A. baumannii ATCC19606, full MH at pH 7.4: >32 ug/mL
A. baumannii ATCC19606; pH 8.5
  MIC A. baumannii ATCC19606, full MH at pH 8.5: >32 ug/mL
A. baumannii ATCC19606; Table S2, […] MH, pH 7.4
  MIC A. baumannii ATCC19606 […] 7.4: 32 µg/mL (≈ 24.2 µM)
A. baumannii ATCC19606; Table S2, […] MH, pH 8.5
  MIC A. baumannii ATCC19606 […] 8.5: 16 µg/mL (≈ 12.1 µM)
A. baumannii ATCC19606; Table S2, full MH, pH 7.4
  MIC A. baumannii ATCC19606 Full MH 7.4: > 32 µg/mL
A. baumannii ATCC19606; Table S2, full MH, pH 8.5
  MIC A. baumannii ATCC19606 Full MH 8.5: > 32 µg/mL
E. coli W3110; CSV
  MIC E. coli W3110, […] MH at pH 7.4: 4 ug/mL
  MIC E. coli W3110, […] MH at pH 8.5: 3 ug/mL
  MIC E. coli W3110, full MH at pH 7.4: >32 ug/mL
E. coli W3110; Table S2, […] MH, pH 7.4
  MIC E. coli W3110 […] 7.4: 4 µg/mL (≈ 3.03 µM)
E. coli W3110; Table S2, […] MH, pH 8.5
  MIC E. coli W3110 […] 8.5: 2 to 4 µg/mL
E. coli W3110; Table S2, full MH, pH 7.4
  MIC E. coli W3110 Full MH 7.4: > 32 µg/mL
E. coli W3110; Table S2, full MH, pH 8.5
  MIC E. coli W3110 Full MH 8.5: 16 µg/mL (≈ 12.1 µM)
K. pneumoniae NCTC418; NCTC418, 4 h, pH 7.4
  MIC K. pneumoniae NCTC418, full MH at pH 7.4: >32 ug/mL
K. pneumoniae NCTC418; Table S2, […] MH, pH 7.4
  MIC K. pneumoniae NCTC418 […] 7.4: > 32 µg/mL
K. pneumoniae NCTC418; Table S2, […] MH, pH 8.5
  MIC K. pneumoniae NCTC418 […] 8.5: 16 µg/mL (≈ 12.1 µM)
K. pneumoniae NCTC418; Table S2, full MH, pH 7.4
  MIC K. pneumoniae NCTC418 Full MH 7.4: > 32 µg/mL
K. pneumoniae NCTC418; Table S2, full MH, pH 8.5
  MIC K. pneumoniae NCTC418 Full MH 8.5: 32 µg/mL (≈ 24.2 µM)
P. aeruginosa PAO1; pH 7.4
  MIC P. aeruginosa PAO1, full MH at pH 7.4: >32 ug/mL
P. aeruginosa PAO1; pH 8.5
  MIC P. aeruginosa PAO1, full MH at pH 8.5: 16 ug/mL
P. aeruginosa PAO1; Table S2, […] MH, pH 7.4
  MIC P. aeruginosa PAO1 […] 7.4: 16 µg/mL (≈ 12.1 µM)
P. aeruginosa PAO1; Table S2, […] MH, pH 8.5
  MIC P. aeruginosa PAO1 […] 8.5: 4 µg/mL (≈ 3.03 µM)
P. aeruginosa PAO1; Table S2, full MH, pH 7.4
  MIC P. aeruginosa PAO1 Full MH 7.4: > 32 µg/mL
P. aeruginosa PAO1; Table S2, full MH, pH 8.5
  MIC P. aeruginosa PAO1 Full MH 8.5: 16 µg/mL (≈ 12.1 µM)
PA14 2P4 (pmrB)
  MIC P. aeruginosa PA14 2P4, […] MH at pH 8.5: 16 ug/mL
PA14 4.13 (phoQ)
  MIC P. aeruginosa PA14 4.13, […] MH at pH 8.5: 6 ug/mL
  MIC P. aeruginosa PA14 4.13: 4 to 8 µg/mL
PA14 4.18 (pmrB)
  MIC P. aeruginosa PA14 4.18, […] MH at pH 8.5: 8 ug/mL
S. aureus COL (MRSA); pH 7.4
  MIC S. aureus COL (MRSA), full MH at pH 7.4: >32 ug/mL
S. aureus COL (MRSA); pH 8.5
  MIC S. aureus COL (MRSA), full MH at pH 8.5: 32 ug/mL
S. aureus COL (MRSA); Table S2, […] MH, pH 7.4
  MIC S. aureus COL (MRSA) […] 7.4: 32 µg/mL (≈ 24.2 µM)
S. aureus COL (MRSA); Table S2, […] MH, pH 8.5
  MIC S. aureus COL (MRSA) […] 8.5: 8 µg/mL (≈ 6.05 µM)
S. aureus COL (MRSA); Table S2, full MH, pH 7.4
  MIC S. aureus COL (MRSA) Full MH 7.4: > 32 µg/mL
S. aureus COL (MRSA); Table S2, full MH, pH 8.5
  MIC S. aureus COL (MRSA) Full MH 8.5: 32 µg/mL (≈ 24.2 µM)
[1]
  Hemolysis: none of them showed any measurable hemolysis
  MHC: >2000 µg/mL
[2]; DichroWeb, Contin-LL
  CD %α with 5 mM DPC: 13%
  CD %α with 20% TFE: 15%
[2]; Table S2
  CD %α with 5 mM DPC: 13%
  CD %α with 20% TFE: 15%
P. aeruginosa PA14
  MIC P. aeruginosa PA14: 4 µg/mL (≈ 3.03 µM)
S. aureus Newman
  MIC S. aureus Newman: 4 µg/mL (≈ 3.03 µM)
